Consider 14 compounds from patent publication US10072034B2, “Kinase inhibitors” (Respivert Limited, priority 2016, dated 2018).

In brackets after ≈: the same amount, converted by molar mass. Where two headings read alike, the source gives them in different places.

Usually IC50 stands for the concentration needed to halve the response being measured. A high value points to a need for much substance.

Data set [1] relates to IL-8 release in PBMCs. Put plainly: LPS-induced IL-8 release in PBMC cells (assay (b)). It counts as cell-based. The note with it: Homo sapiens, LPS-stimulated PBMCs. The text has this: Peripheral blood mononuclear cells (PBMCs) from healthy subjects are separated from whole blood using a density gradient (Lymphoprep, Axis-Shield Healthcare). […] The supernatant is harvested for determination of IL-8 and TNFα concentrations by sandwich ELISA (Duo-set, R&D systems) and read on the fluorescence microplate reader (Varioskan® Flash, ThermoFisher Scientific).

A short description of data set [2]: Solubility in fasted-state simulated colonic fluid (FaSSCoF) at pH 6.5. It counts as physicochemical. The settings on record: fasted-state simulated colonic fluid (FaSSCoF), 25 °C, pH 6.5, fassgf or other biorelevant, thermodynamic from solid, pH 6.5, 25° C. As for the experimental part:
The solubilities of compounds of the invention in FaSSCoF at pH 6.5 are determined using a modification of a previously-reported procedure (Vertzoni, M., et al. Pharm. Res. 2010, 27, 2187-2196). In place of the bile salt extract employed in the original procedure (which extract is no longer available), the modified procedure uses a mixture of sodium taurocholate (0.15 g), glycocholic acid (0.15 g), ursodeoxycholic acid (0.05 g), cholic acid (0.05 g), and glycodeoxycholic acid (0.05 g). These five bile acids are ground together with a mortar and pestle to produce a fine white powder that is incorporated into the FaSSCoF, as outlined below.
FaSSCoF medium: Tris(hydroxymethyl)aminomethane (Tris; 0.275 g) and maleic acid (0.44 g) are dissolved in water (35 mL) to give a solution whose pH is adjusted to 6.5 by treatment with 0.5M NaOH (ca. 12 mL). The solution is then made up to 50 mL with water. A portion of this Tris/maleate buffer solution (ca. 25 mL) is added to a 0.5 L round-bottomed flask, before being treated with 0.00565 g of the bile acid mixture described above. Solutions of phosphatidylcholine (0.0111 g) in DCM (0.15 mL) and palmitic acid (0.0013 g) in DCM (0.15 mL) are added, then the organic solvent is evaporated off under reduced pressure at 40° C. until a clear solution, with no perceptible DCM odour, is achieved. The volume of the evaporated solution is adjusted to 50 mL by addition of the remainder of Tris/maleate buffer, then BSA (0.115 g) is added, before being dissolved by gentle agitation.
Solubility Determination: Test compounds are suspended in the pH 6.5 FaSSCoF medium to give a maximum final concentration of 2-10 mg/mL. The suspensions are equilibrated at 25° C. for 24 h, before being filtered through a glass fibre C filter. The filtrates are then diluted as appropriate for injection and quantification by HPLC with reference to a standard. Different volumes of the standard, diluted and undiluted sample solutions are injected and the solubilities are calculated using the peak areas determined by integration of the peak found at the same retention time as the principal peak in the standard injection.

Data set [3] is described as follows: Solubility and dissolution rate in phosphate-buffered saline (further studies). The format is physicochemical. The note with it: pH 6.5 with 0.5% by weight of simulated intestinal fluid or pH 7.2.
Data set [4] has as its system Jurkat cells. Nature of the data set: Cell cytotoxicity assay, Jurkat cell viability (assay (r)). The settings on record: 24 hours. The format is cell-based, human. As for the experimental part: 1×10^5 Jurkat cells (immortalised human T lymphocytes) are added to the appropriate number of wells of a 96 well plate in 100 μL of media (RPMI supplemented with 10% foetal bovine serum). 1 μL of DMSO control (final concentration 1.0% v/v) or test compound (final concentration 20, 5 or 1 μg/mL) is added to the wells and incubated at 37° C., 5% CO2. After 24 hours, the plate is centrifuged at 1200 rpm for 3 minutes and the supernatant discarded. Cells are then resuspended in 150 μL (final concentration 7.5 μg/mL) of propidium iodide (PI) in PBS and incubated at 37° C., 5% CO2 for 15 minutes. After 15 minutes, cells are analysed by flow cytometry (BD accuri) using the FL3 window. The % viability is calculated as the % of cells that are P negative in the test wells normalised to the DMSO control.

[5] abbreviates: Run 1, read-out: pH 6.5 FaSSCoF Solubility Run 1.
[6] abbreviates: Run 2, read-out: pH 6.5 FaSSCoF Solubility Run 2.

In data set [1], `COc1cc(Nc2cc(Oc3ccc(NC(=O)Nc4cc(C(C)(C)C)cc(S(C)(=O)=O)c4OC)c4ccccc34)ccn2)cc(OCCOCCOCC(=O)O)c1` [Example 9, 2-(2-(2-(3-((4-((4-(3-(5-(tert-Butyl)-2-methoxy-3-(methylsulfonyl)phenyl)ureido)naphthalen-1-yl)oxy)pyridin-2-yl)amino)-5-methoxphenoxy)ethoxy)ethoxy)acetic acid] displayed an IC50 of 11.7 nM. Moreover, the solubility thermodynamic at 24 h in data set [2] (setting [5]) was 460 µg/mL (≈ 573 µM); in data set [2] (setting [6]), 540 µg/mL (≈ 673 µM).
On to `COc1cc(Nc2cc(Oc3ccc(NC(=O)Nc4cc(C(C)(C)C)cc(NS(C)(=O)=O)c4OC)c4ccccc34)ccn2)cc(OCCOCCOCC(=O)[O-])c1.[Na+]` [Example 31, 2-(2-(2-(3-((4-((4-(3-(5-(tert-Butyl)-2-methoxy-3-(methylsulfonamido)phenyl)ureido)-naphthalen-1-yl)oxy)pyridin-2-yl)amino)-5-methoxyphenoxy)ethoxy)ethoxy)acetic acid, sodium salt], for which the solubility thermodynamic at 24 h in data set [2] (setting [5]) is 1900 µg/mL; in data set [2] (setting [6]) it was 2100 µg/mL. Besides, the “Dissolution rate relative to Reference Compounds A (hydrochloride salt) and B” value in data set [3] was “faster dissolution rate”. Also, the “Solubility relative to Reference Compounds A (hydrochloride salt) and B” value in data set [3] is “more soluble than”.
Turning to `COc1cc(Nc2cc(Oc3ccc(NC(=O)Nc4cc(C(C)(C)C)cc(NS(C)(=O)=O)c4OC)c4ccccc34)ccn2)cc(OCCOCC2CC(C(=O)O)CO2)c1` (stereo not shown) [Example 13, 5-((2-(3-((4-((4-(3-(5-(tert-Butyl)-2-methoxy-3-methylsulfonamido)phenylureido)naphthalen-1-yl)oxy)pyridin-2-yl)amino)-5-methoxyphenoxy)ethoxy)methyl)tetrahydrofuran-3-carboxylic acid], in data set [1], the IC50 is 2.8 nM.
For the compound `CCS(=O)(=O)c1cc(C(C)(C)C)cc(NC(=O)Nc2ccc(Oc3ccnc(Nc4cc(OC)cc(OCCOCCOCC(=O)O)c4)c3)c3ccccc23)c1OC` [Example 15], the IC50 in data set [1] amounted to 16.4 nM.
For the compound `COc1cc(Nc2cc(Oc3ccc(NC(=O)Nc4cc(C(C)(C)C)cc(NS(C)(=O)=O)c4OC)c4ccccc34)ccn2)cc(OCCOCCOCc2cc(=O)o[nH]2)c1` [Example 18], the half-inhibitory concentration (IC50) in data set [1] is 29.3 nM.
As to `COc1cc(Nc2cc(Oc3ccc(NC(=O)Nc4cc(C(C)(C)C)cc(NS(C)(=O)=O)c4OC)c4ccccc34)ccn2)cc(OCCOCCn2cc(C(=O)O)cn2)c1` [Example 22], the IC50 in data set [1] was found to be 18.1 nM.
In data set [1], `COc1cc(Nc2cc(Oc3ccc(NC(=O)Nc4cc(C(C)(C)C)cc(NS(C)(=O)=O)c4OC)c4ccccc34)ccn2)cc(OCCOCc2ccc(C(=O)O)s2)c1` [Example 26] returned an IC50 of 15.3 nM.
The same measure, in the same setting: the figure for `COc1cc(Nc2cc(Oc3ccc(NC(=O)Nc4cc(C(C)(C)C)cc(NS(C)(=O)=O)c4OC)c4ccccc34)ccn2)cc(OCCOCCOC(C)(C)C(=O)O)c1` [Example 21] is 14.4 nM; for `COc1cc(Nc2cc(Oc3ccc(NC(=O)Nc4cc(C(C)(C)C)cc(NS(C)(=O)=O)c4OC)c4ccccc34)ccn2)cc(OCCOCc2cc(C(=O)O)cs2)c1` [Example 27] it is 7.3 nM.
In data set [1], `COc1cc(Nc2cc(Oc3ccc(NC(=O)Nc4cc(C(C)(C)C)cc(P(C)(C)=O)c4OC)c4ccccc34)ccn2)cc(OCCOCCOCC(=O)O)c1` [Example 10, 2-(2-(2-(3-((4-((4-(3-(5-(tert-Butyl)-3-(dimethylphosphoryl)-2-methoxyphenyl)ureido)-naphthalen-1-yl)oxy)pyridin-2-yl)amino)-5-methoxyphenoxy)ethoxy)ethoxy)acetic acid] showed a half-inhibitory concentration (IC50) of 26.5 nM.
The compound `COc1cc(Nc2cc(Oc3ccc(NC(=O)Nc4cc(C(C)(C)C)cc(NS(C)(=O)=O)c4OC)c4ccccc34)ccn2)cc(OCCOCCSCC(=O)O)c1` [Example 19, 2-((2-(2-(3-((4-((4-(3-(5-(tert-Butyl)-2-methoxy-3-(methylsulfonamido)phenyl)ureido)-naphthalen-1-yl)oxy)pyridin-2-yl)amino)-5-methoxyphenoxy)ethoxy)ethyl)thio)acetic acid] yielded an IC50 in data set [1] of 2.9 nM. The solubility thermodynamic at 24 h in data set [2] (setting [5]) and in data set [2] (setting [6]) was 30 µg/mL (≈ 36 µM) in each case.
In data set [1], `COc1cc(Nc2cc(Oc3ccc(NC(=O)Nc4cc(C(C)(C)C)cc(NS(C)(=O)=O)c4OC)c4ccccc34)ccn2)cc(OCCOCC(=O)O)c1` [Example 24] gave an IC50 of 61.9 nM.
Turning to `COCC(=O)Nc1cc(Oc2ccc(NC(=O)Nc3cc(C(C)(C)C)nn3-c3ccc(C)cc3)c3ccccc23)ccn1` [Reference compound, N-(4-(4-(3-(3-tert-butyl-1-p-tolyl-1H-pyrazol-5-yl)ureido)naphthalen-1-yloxy)pyridin-2-yl)-2-methoxyacetamide, reference compound], the “% Viability at 1 μg/mL” value in data set [4] (1 μg/mL) is recorded as 29%. In addition, the “% Viability at 5 μg/mL” value in data set [4] (5 μg/mL) is on record as 26%. The “% Viability at 20 μg/mL” value in data set [4] (20 μg/mL) was 24%.
In the case of `COc1cc(Nc2cc(Oc3ccc(NC(=O)Nc4cc(C(C)(C)C)cc([S+](C)[O-])c4OC)c4ccccc34)ccn2)cc(OCCOCCOCC(=O)O)c1` (stereo not shown) [Example 8, 2-(2-(2-(3-((4-((4-(3-(5-(tert-Butyl)-2-methoxy)-3-(methylsulfinyl)phenylureido)naphthalen-1-yl)oxy)pyridin-2-yl)amino)-5-methoxyphenoxy)ethoxy)ethoxy)acetic acid], in data set [1], the IC50 was 8 nM. For the same compound, the solubility thermodynamic at 24 h in data set [2] (setting [5]) is 2800 µg/mL (≈ 3560 µM); in data set [2] (setting [6]), 3200 µg/mL (≈ 4070 µM).
